According to patent US20230278972A1, “SUBSTITUTED HALOALKYL SULFONANILIDE HERBICIDES” (FMC Corporation, priority 2020, published 2023):

Legend:
Format in all cases: in vivo
[1] = system: blackgrass (Alopecurus myosuroides); assay: Test A1 postemergence, blackgrass; conditions: Postemergence, 0 to 100 scale (0 no effect, 100 complete control)
Procedure, shortened: (§1)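 Pre: seeds in loam/sand blend, directed soil spray. Post: potted plants, same soil, 2–10 cm, 1–2 leaf stage. Chemicals in non-phytotoxic solvent + surfactant for both.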

[2] = system: goosegrass (Eleusine indica); assay: Test A1 postemergence, goosegrass; conditions: Postemergence
Procedure, shortened: as §1

[3] = system: Pigweed, Palmer (palmer amaranth, palmer pigweed, Amaranthus palmeri); assay: Test A1 postemergence, Pigweed, Palmer; conditions: Postemergence
Procedure, shortened: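 Plants were grown in a loam soil/sand blend, with test chemicals formulated in a non-phytotoxic solvent mixture containing surfactant. Preemergence treatment (corn) was a directed soil spray at planting. Postemergence treatment was applied to plants 2 to 10 cm tall at the one- to two-leaf stage.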

[4] = system: blackgrass (Alopecurus myosuroides); assay: Test A1 preemergence, blackgrass
Procedure, shortened: (§2)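 Test compounds were formulated in a non-phytotoxic solvent mixture containing a surfactant. For preemergence, seeds sown in a loam soil–sand blend received a directed soil spray. For postemergence, potted plants in the same soil, 2 to 10 cm tall at the one- to two-leaf stage, were sprayed.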

[5] = system: Foxtail, Giant (giant foxtail, Setaria faberi); assay: Test A1 postemergence, Foxtail, Giant; conditions: Postemergence
Procedure, shortened: as §1

[6] = system: horseweed (Erigeron canadensis); assay: Test A1 postemergence, horseweed; conditions: Postemergence
Procedure, shortened: as §1

[7] = system: Ryegrass, Italian (Italian ryegrass, Lolium multiflorum); assay: Test A1 postemergence, Ryegrass, Italian; conditions: Postemergence
Procedure, shortened: as §1

[8] = system: goosegrass (Eleusine indica); assay: Test A1 preemergence, goosegrass
Procedure, shortened: as §2

rice (Oryza sativa) = assay: Test B1 flooded paddy test, rice; conditions: 250 g ai/ha, Flood, applied to paddy water, 2-leaf stage, visually evaluated after 10 to 14 days
Source text: A dash (-) response means no test result.

[9] = system: wheat (Triticum aestivum); assay: Test A1 preemergence, wheat
Procedure, shortened: as §2

[10] = 31 g ai/ha, 0 to 100 scale (0 no effect, 100 complete control), 10 days
[11] = 31 g ai/ha, 0 to 100 scale (0 no effect, 100 complete control)
[12] = 125 g ai/ha, 0 to 100 scale, 0 no effect, 100 complete control

Structure (SMILES) | Plant response rating, Blackgrass ([1]; 31 g ai/ha, 10 days) | Plant response rating, Blackgrass ([1]; 125 g ai/ha) | Plant response rating, Goosegrass [2, 10] | Plant response rating, Goosegrass ([2]; 125 g ai/ha, 0 to 100 scale) | Plant response rating, Pigweed, Palmer [3, 10] | Plant response rating, Pigweed, Palmer ([3]; 125 g ai/ha, 0 to 100 scale) | Plant response rating, Blackgrass [4, 11] | Plant response rating, Blackgrass [4, 12] | Plant response rating, Foxtail, Giant [5, 10] | Plant response rating, Foxtail, Giant ([5]; 125 g ai/ha, 0 to 100 scale) | Plant response rating, Horseweed [6, 10] | Plant response rating, Horseweed ([6]; 125 g ai/ha, 0 to 100 scale) | Plant response rating, Ryegrass, Italian [7, 10] | Plant response rating, Ryegrass, Italian ([7]; 125 g ai/ha, 0 to 100 scale) | Plant response rating, Goosegrass [8, 11] | Plant response rating, Goosegrass [8, 12] | Plant response rating, Rice (0 to 100 scale, 0 is no effect, 100 is complete control) (rice (Oryza sativa)) | Plant response rating, Wheat [9, 11] | Plant response rating, Wheat [9, 12]
CCOC(=O)N(c1cc(C(=O)N2CCC(C)CC2)c(C)cc1C)S(=O)(=O)C(F)(F)F [Compound 354] | 0 | 0 | 0 | 100 | 0 | 10 | 0 | 0 | 0 | 70 | 80 | 90 | 0 | 40 | 70 | 100 | 15 | 0 | 30
COCC1CC(c2cc(NS(=O)(=O)C(F)(F)F)c(C)cc2C)=NO1 (stereo not shown) [Compound 319] | 0 | 10 | 70 | 90 | 0 | 50 | 30 | 50 | 40 | 90 | 10 | 40 | 30 | 50 | 90 | 90 | 30 | 80 | 100
COc1cnn(-c2cc(NS(=O)(=O)C(F)(F)F)c(C)cc2C)c(=O)c1OC [Compound 282] | 0 | 20 | 20 | 80 | 0 | 0 | 30 | 60 | 0 | 20 | 50 | 80 | 30 | 60 | 0 | 90 | 0 | 0 | 80
Cc1cc(C)c(N(COC(=O)C(C)(C)C)S(=O)(=O)C(F)(F)F)cc1C(=O)N1CCC(c2ccccc2)CC1 [Compound 364] | 0 | 0 | 0 | 0 | 0 | 0 | 0 | 0 | 0 | 20 | 0 | 0 | 0 | 0 | 0 | 0 | 0 | 0 | 0
CCOC(=O)N(c1cc(C(=O)N2CCC(F)(F)CC2)c(C)cc1C)S(=O)(=O)C(F)(F)F [Compound 351] | 0 | 80 | 40 | 90 | 10 | 20 | 10 | 50 | 30 | 50 | 100 | 90 | 20 | 50 | 40 | 100 | 50 | 10 | 50
Cc1c(C(=O)N2CCC(F)(F)CC2)cc(N(COC(=O)C(C)(C)C)S(=O)(=O)C(F)(F)F)c(C)c1C [Compound 360] | 0 | 0 | 0 | 40 | 20 | 40 | 0 | 0 | 0 | 0 | 10 | 70 | 0 | 0 | 0 | 90 | 25 | 0 | 10
CCOC(=O)N(c1cc(C(=O)N2CCOCC2)c(C)cc1C)S(=O)(=O)C(F)(F)F [Compound 363] | 0 | 50 | 30 | 90 | 0 | 10 | 50 | 90 | 30 | 90 | 80 | 90 | 20 | 90 | 100 | 100 | 25 | 40 | 90
Cc1cc(Br)c(NS(=O)(=O)C(F)(F)F)cc1C1=NOC2(CCCC2)C1 [Compound 309] | – | – | 0 | 30 | 0 | 20 | 30 | 60 | 20 | 60 | 10 | 20 | 0 | 30 | 50 | 100 | 0 | 0 | 60
Cc1c(NS(=O)(=O)C(F)(F)F)cc(C(=O)N2CC(C)OC(C)C2)c(C)c1C (stereo not shown) [Compound 328] | 0 | 0 | 20 | 80 | 30 | 40 | 20 | 30 | 0 | 70 | – | – | 30 | 60 | 40 | 80 | 0 | 0 | 30
Cc1c(NS(=O)(=O)C(F)(F)F)cc(C(=O)N2CC(C)OC(C)C2)c(C)c1C (stereo not shown) [Compound 327] | 0 | 0 | 20 | 70 | 30 | 50 | 0 | 30 | 30 | 90 | – | – | 0 | 30 | 50 | 90 | 0 | 0 | 30
CCc1cc(C)c(NS(=O)(=O)C(F)(F)F)cc1C1=NOC2CCCC12 (stereo not shown) [Compound 305] | 0 | 0 | 10 | 80 | 0 | 40 | 10 | 40 | 20 | 60 | – | – | 0 | 40 | 90 | 90 | 0 | 20 | 40
CCC1ON=C(c2cc(NS(=O)(=O)C(F)(F)F)c(C)cc2C)C1CC (stereo not shown) [Compound 343] | 10 | 30 | 40 | 90 | 0 | 60 | 60 | 90 | 0 | 30 | – | – | 20 | 80 | 90 | 100 | 40 | 10 | 90
CCC1ON=C(c2cc(N(COC(=O)C(C)(C)C)S(=O)(=O)C(F)(F)F)c(C)cc2C)C1CC (stereo not shown) [Compound 347] | 0 | 30 | 0 | 40 | 20 | 50 | 10 | 30 | 20 | 30 | – | – | 0 | 60 | 10 | 60 | 25 | 0 | 20
